US20050143411A1, “Method for treating pulmonary disease” (Fujisawa Pharmaceutical Co., Ltd., priority 2003, published 2005)

Test system: cigarette smoke exposed guinea pigs
Assay: cigarette smoke-induced COPD model in guinea pigs; specific airway resistance (sRaw) by double body plethysmograph
Assay type: in vivo, Hartley guinea pigs
Method: The effect of the FK506 Substance on the cigarette smoke-induced COPD model in guinea pigs was confirmed in the following manner.
1. Hartley guinea pigs were exposed to cigarette smoke in a nose-only inhalation chamber for 60 min/day, 5 days/week, for 4 weeks. Animals of the negative control group were exposed to the air.
2. FK506 Substance in the form of a solid dispersion composition, which was prepared in a similar manner to that of Example 1 (above), or its placebo was given orally, after suspension in water, every day about 1 hr before the cigarette smoke exposure.
3. Specific airway resistance (sRaw) was measured as a respiratory function parameter at 0, 1, 2, 3 and 4 weeks after the start of cigarette smoke inhalation by a double body plethysmograph method (Ref. 1).
Reference • Ref. 1; Pennock B E, Cox C P, Rogers R M, Cain W A, Wells J H. A Noninvasive technique for measurement of changes in specific airway resistance. J Appl Physiol. 1979 February; 46(2):399-406. Results

With `C=CCC1C=C(C)CC(C)CC(OC)C2OC(O)(C(=O)C(=O)N3CCCCC3C(=O)OC(C(C)=CC3CCC(O)C(OC)C3)C(C)C(O)CC1=O)C(C)CC2OC` (centres unmarked) [FK506, 17-allyl-1,14-dihydroxy-12-[2-(4-hydroxy-3-methoxycyclohexyl)-1-methylvinyl]-23,25-dimethoxy-13,19,21,27-tetramethyl-11,28-dioxa-4-azatricyclo[22.3.1.0^4,9]octacos-18-ene-2,3,10,16-tetraone] the sRaw (FK506 0.32 mg/kg orally every day, 1 week of cigarette smoke exposure) was 1.815 ± 0.073 cmH2O × mL/(mL/sec), the sRaw (FK506 0.32 mg/kg orally every day, 2 weeks of cigarette smoke exposure) was 2.089 ± 0.054 cmH2O × mL/(mL/sec) and the sRaw (FK506 0.32 mg/kg orally every day, 3 weeks of cigarette smoke exposure) was 2.476 ± 0.112 cmH2O × mL/(mL/sec). The sRaw (FK506 0.32 mg/kg orally every day, 4 weeks of cigarette smoke exposure) was 2.636 ± 0.133 cmH2O × mL/(mL/sec), the sRaw (FK506 0.32 mg/kg orally every day, pre (0 weeks), n=8) was 1.892 ± 0.048 cmH2O × mL/(mL/sec) and the sRaw (FK506 1 mg/kg orally every day, 1 week of cigarette smoke exposure) was 1.844 ± 0.123 cmH2O × mL/(mL/sec). For the same compound, the sRaw (FK506 1 mg/kg orally every day, 2 weeks of cigarette smoke exposure) was 2.012 ± 0.103 cmH2O × mL/(mL/sec), the sRaw (FK506 1 mg/kg orally every day, 3 weeks of cigarette smoke exposure) was 2.372 ± 0.167 cmH2O × mL/(mL/sec) and the sRaw (FK506 1 mg/kg orally every day, 4 weeks of cigarette smoke exposure) was 2.763 ± 0.276 cmH2O × mL/(mL/sec). For the same compound, the sRaw (FK506 1 mg/kg orally every day, pre (0 weeks), n=8) was 1.899 ± 0.064 cmH2O × mL/(mL/sec) and the “effect on decline of the respiratory function (increase of sRaw) caused by cigarette smoke” value (orally given, cigarette smoke exposed guinea pigs) was “significantly suppressed the decline of the respiratory function”.
